Laboratory results as given in PubChem BioAssay AID330 (DTP/NCI, 2004).
Values joined by “and” are separate entries in the source; they are usually repeats but may differ in a detail not shown here. Equal values may be shown once. Inconclusive results and toxic doses are left out.

System: P388 leukemia ip, CD2F1 mice, survival T/C
Experiment: NCI In Vivo Anticancer Drug Screen. Data for tumor model P388 Leukemia (intraperitoneal) in CD2F1 (CDF1) mice
Conditions: endpoint: median survival time, higher = longer survival
Outline: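 Mice carrying the transplanted tumor received test compound or vehicle. Survival was recorded in each group, and the value is the treated-group measurement divided by that of the vehicle-treated control group.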

[1] = dose: 60.0 mg/kg/injection, schedule: Q01DX005 (ip), vehicle: saline with Tween-80
[2] = dose: 120.0 mg/kg/injection, schedule: Q01DX005 (ip), vehicle: saline with Tween-80
[3] = dose: 240.0 mg/kg/injection, schedule: Q01DX005 (ip), vehicle: saline with Tween-80
[4] = dose: 100.0 mg/kg/injection, schedule: Q04DX003 (ip), vehicle: saline with Tween-80
[5] = dose: 200.0 mg/kg/injection, schedule: Q04DX003 (ip), vehicle: saline with Tween-80
[6] = dose: 50.0 mg/kg/injection, schedule: Q01DX005 (ip), vehicle: Klucel (hydroxypropylcellulose) (HPC)
[7] = dose: 100.0 mg/kg/injection, schedule: Q01DX005 (ip), vehicle: Klucel (hydroxypropylcellulose) (HPC)
[8] = dose: 200.0 mg/kg/injection, schedule: Q01DX005 (ip), vehicle: Klucel (hydroxypropylcellulose) (HPC)
[9] = dose: 50.0 mg/kg/injection, schedule: Q01DX009 (ip), vehicle: Klucel (hydroxypropylcellulose) (HPC)
[10] = dose: 100.0 mg/kg/injection, schedule: Q01DX009 (ip), vehicle: Klucel (hydroxypropylcellulose) (HPC)
[11] = dose: 200.0 mg/kg/injection, schedule: Q01DX009 (ip), vehicle: Klucel (hydroxypropylcellulose) (HPC)
[12] = dose: 50.0 mg/kg/injection, schedule: Q01DX009 (ip), vehicle: saline with Tween-80
[13] = dose: 100.0 mg/kg/injection, schedule: Q01DX009 (ip), vehicle: saline with Tween-80
[14] = dose: 200.0 mg/kg/injection, schedule: Q01DX009 (ip), vehicle: saline with Tween-80

O=C(Oc1ccc[nH]c1=O)c1cccc(C(F)(F)F)c1
T/C (dose: 12.5 mg/kg/injection, schedule: Q01DX009 (ip), vehicle: distilled water + Tween-80): 100 % of control | T/C (dose: 25.0 mg/kg/injection, schedule: Q01DX009 (ip), vehicle: distilled water + Tween-80): 100 % of control | T/C (dose: 50.0 mg/kg/injection, schedule: Q01DX009 (ip), vehicle: distilled water + Tween-80): 102 % of control | T/C (dose: 100.0 mg/kg/injection, schedule: Q01DX009 (ip), vehicle: distilled water + Tween-80): 96 % of control | T/C (dose: 200.0 mg/kg/injection, schedule: Q01DX009 (ip), vehicle: distilled water + Tween-80): 90 % of control

O=S(=O)(Cl)c1ccccc1 (tested in a mixture with another compound)
T/C [1]: 104 % of control | T/C [2]: 99 % of control | T/C [3]: 99 % of control

NS(=O)(=O)c1ccc(C(=O)O)cc1
T/C (dose: 25.0 mg/kg/injection, schedule: Q04DX003 (ip), vehicle: saline with Tween-80): 101 % of control | T/C (dose: 50.0 mg/kg/injection, schedule: Q04DX003 (ip), vehicle: saline with Tween-80): 94 % of control | T/C [4]: 100 % of control | T/C [5]: 103 % of control

O=c1c2ccccc2n(-c2ccccc2)c2cc(Cl)ccc12
T/C [6]: 100 % of control | T/C [7]: 102 % of control | T/C [8]: 100 % of control

CC(CN(C)C)C(/C=C/c1ccc(Cl)cc1)=N\NC(=O)c1ccccc1 (configuration not stated)
T/C (dose: 15.0 mg/kg/injection, schedule: Q01DX005 (ip), vehicle: saline): 101 % of control | T/C (dose: 30.0 mg/kg/injection, schedule: Q01DX005 (ip), vehicle: saline): 100 % of control | T/C (dose: 60.0 mg/kg/injection, schedule: Q01DX005 (ip), vehicle: saline): 104 % of control and 121 % of control | T/C (dose: 120.0 mg/kg/injection, schedule: Q01DX005 (ip), vehicle: saline): 114 % of control

CCc1nc(N)nc(N)c1-c1ccc(NC2CCCCC2)c([N+](=O)[O-])c1
T/C [1]: 101 % of control | T/C [2]: 95 % of control | T/C [3]: 94 % of control

COC(=O)CCC(Br)(Br)Br
T/C [9]: 94 % of control | T/C [10]: 99 % of control

Cc1ccc2nc(NC(=S)SSC(=S)Nc3nc4ccc(C)cc4s3)sc2c1
T/C (dose: 6.25 mg/kg/injection, schedule: Q01DX009 (ip), vehicle: Klucel (hydroxypropylcellulose) (HPC)): 107 % of control | T/C (dose: 12.5 mg/kg/injection, schedule: Q01DX009 (ip), vehicle: Klucel (hydroxypropylcellulose) (HPC)): 108 % of control | T/C (dose: 25.0 mg/kg/injection, schedule: Q01DX009 (ip), vehicle: Klucel (hydroxypropylcellulose) (HPC)): 94 % of control

COC(=O)/C=C1\C(=O)OC(C)(C)C1(C)C
T/C [9]: 111 % of control | T/C [10]: 100 % of control | T/C [11]: 103 % of control

N#Cc1ccc(NN=NCCSCCO)cc1
T/C (dose: 12.5 mg/kg/injection, schedule: Q01DX009 (ip), vehicle: distilled water + alcohol): 96 % of control | T/C (dose: 25.0 mg/kg/injection, schedule: Q01DX009 (ip), vehicle: distilled water + alcohol): 104 % of control | T/C (dose: 50.0 mg/kg/injection, schedule: Q01DX009 (ip), vehicle: distilled water + alcohol): 104 % of control | T/C (dose: 100.0 mg/kg/injection, schedule: Q01DX009 (ip), vehicle: distilled water + alcohol): 109 % of control

O=C1Nc2cnc(Cl)nc2Nc2ccccc21
T/C [6]: 99 % of control | T/C [7]: 91 % of control | T/C [8]: 101 % of control

CN1CCCN(C)C1c1ccc(Cl)cc1
T/C (dose: 12.5 mg/kg/injection, schedule: Q01DX009 (ip), vehicle: saline sonified): 90 % of control | T/C (dose: 25.0 mg/kg/injection, schedule: Q01DX009 (ip), vehicle: saline sonified): 90 % of control

CC(C)CNC12CN3CN(CN(C3)C1)C2
T/C (dose: 100.0 mg/kg/injection, schedule: Q04DX003 (ip), vehicle: saline): 98 % of control | T/C (dose: 200.0 mg/kg/injection, schedule: Q04DX003 (ip), vehicle: saline): 90 % of control | T/C (dose: 400.0 mg/kg/injection, schedule: Q04DX003 (ip), vehicle: saline): 92 % of control

Cc1ccc(C2N3CCCN2CC3)cc1 (configuration not stated)
T/C [12]: 104 % of control | T/C [13]: 102 % of control | T/C [14]: 109 % of control

O=C(O)c1ccc(S(=O)(=O)F)c(Cl)c1
T/C [1]: 120 % of control | T/C [2]: 119 % of control | T/C [3]: 121 % of control

CSCSCC(CO)NC(=O)/C=C/c1c(C)[nH]c(=O)[nH]c1=O (configuration not stated)
T/C (dose: 0.08 mg/kg/injection, schedule: Q01DX009 (ip), vehicle: water): 105 % of control | T/C (dose: 0.15 mg/kg/injection, schedule: Q01DX009 (ip), vehicle: water): 107 % of control | T/C (dose: 0.3 mg/kg/injection, schedule: Q01DX009 (ip), vehicle: water): 102 % of control | T/C (dose: 0.6 mg/kg/injection, schedule: Q01DX009 (ip), vehicle: water): 101 % of control | T/C (dose: 1.2 mg/kg/injection, schedule: Q01DX009 (ip), vehicle: water): 109 % of control | T/C (dose: 50.0 mg/kg/injection, schedule: Q01DX009 (ip), vehicle: other): 87 % of control | T/C (dose: 100.0 mg/kg/injection, schedule: Q01DX009 (ip), vehicle: other): 98 % of control | T/C (dose: 200.0 mg/kg/injection, schedule: Q01DX009 (ip), vehicle: other): 89 % of control | T/C (dose: 400.0 mg/kg/injection, schedule: Q01DX009 (ip), vehicle: other): 86 % of control

O=C(c1ccccc1)C1CCCN(c2ccccc2)S1(=O)=O (configuration not stated)
T/C [4]: 98 % of control | T/C [5]: 104 % of control | T/C (dose: 400.0 mg/kg/injection, schedule: Q04DX003 (ip), vehicle: saline with Tween-80): 94 % of control

C=C1CC2C3CCC=C3C(c3ccc(OC)cc3)C2C1=O (configuration not stated)
T/C (dose: 25.0 mg/kg/injection, schedule: Q01DX001 (ip), vehicle: Klucel (hydroxypropylcellulose) (HPC)): 112 % of control | T/C (dose: 50.0 mg/kg/injection, schedule: Q01DX001 (ip), vehicle: Klucel (hydroxypropylcellulose) (HPC)): 109 % of control | T/C (dose: 100.0 mg/kg/injection, schedule: Q01DX001 (ip), vehicle: Klucel (hydroxypropylcellulose) (HPC)): 107 % of control and 111 % of control | T/C (dose: 200.0 mg/kg/injection, schedule: Q01DX001 (ip), vehicle: Klucel (hydroxypropylcellulose) (HPC)): 106 % of control

C[C@]12CCCC[C@@H]1CC[C@@H]1[C@@H]2[C@@H](O)C[C@@]2(C)[C@H]1CC[C@]2(C)O
T/C [4]: 100 % of control | T/C [5]: 100 % of control

NN=c1c2ccccc2oc2ccccc12
T/C [9]: 112 % of control | T/C [10]: 115 % of control | T/C [11]: 115 % of control

CCC1=C[C@H]2CN(CCc3c([nH]c4cc(Br)ccc34)[C@@](C(=O)OC)(c3cc4c(cc3OC)N(C)[C@H]3[C@@](O)(C(=O)OC)[C@H](OC(C)=O)[C@]5(CC)C=CCN6CC[C@]43[C@@H]65)C2)C1
T/C (dose: 1.0 mg/kg/injection, schedule: Q01DX001 (ip), vehicle: water): 113 % of control | T/C (dose: 2.0 mg/kg/injection, schedule: Q01DX001 (ip), vehicle: water): 115 % of control | T/C (dose: 3.9 mg/kg/injection, schedule: Q01DX001 (ip), vehicle: water): 118 % of control | T/C (dose: 4.0 mg/kg/injection, schedule: Q01DX001 (ip), vehicle: water): 122 % of control | T/C (dose: 6.5 mg/kg/injection, schedule: Q01DX001 (ip), vehicle: water): 119 % of control | T/C (dose: 16.0 mg/kg/injection, schedule: Q01DX001 (ip), vehicle: water): 153 % of control | T/C (dose: 18.0 mg/kg/injection, schedule: Q01DX001 (ip), vehicle: water): 169 % of control | T/C (dose: 30.0 mg/kg/injection, schedule: Q01DX001 (ip), vehicle: water): 173 % of control | T/C (dose: 32.0 mg/kg/injection, schedule: Q01DX001 (ip), vehicle: water): 185 % of control

Cc1ccc(NC(=O)N2CCCCC2)cc1[N+](=O)[O-]
T/C [6]: 99 % of control | T/C [7]: 98 % of control | T/C [8]: 96 % of control

COC(=O)/C(C#N)=C/N(C)c1ccc([N+](=O)[O-])cc1
T/C [12]: 100 % of control | T/C [13]: 104 % of control | T/C [14]: 92 % of control

CC(C(C(=O)N1CCCCC1)N1CCCCC1)N1CCCCC1 (configuration not stated)
T/C (dose: 100.0 mg/kg/injection, schedule: Q01DX009 (ip), vehicle: saline): 99 % of control | T/C (dose: 200.0 mg/kg/injection, schedule: Q01DX009 (ip), vehicle: saline): 87 % of control | T/C (dose: 400.0 mg/kg/injection, schedule: Q01DX009 (ip), vehicle: saline): 97 % of control
